Assay results from paper PMC12057336 (Antimicrobial Agents and Chemotherapy, 2025).
Where two headings read alike, the source gives them in different places.

How the values were obtained:
primary rat hepatocytes = settings: for substrate stability in control incubation: absence of hepatocytes; for substrate stability in control incubation / remaining percentage: 1 µM; for remaining percentage: freshly isolated normal rat hepatocytes; for remaining percentage / decrease of formation compared to normal rat hepatocytes: 6 h; for decrease of formation compared to normal rat hepatocytes: linezolid 1 µM
Experimental: Primary rat hepatocytes were isolated from normal, CCl4-induced, and 5/6 Nx rats according to the previously described two-step collagenase method ([36]). Rats were anesthetized with urethane (1 g/kg), their abdomens were opened, and their portal veins were cannulated with a needle. The liver was perfused with HBSS solution (without calcium and magnesium ions) containing 5 mM EGTA at a rate of 50–60 mL/min using a peristaltic pump until the blood in the liver was removed. HBSS solution containing 7.5 mg/50 mL collagenase was perfused for 20 min until the liver was completely softened and the surface collapsed. The liver was gently removed and placed in a precooled HBSS solution containing 10% FBS. Hepatocytes were eluted and centrifuged at 500 × g for 5 min, and the supernatant was removed to obtain primary rat hepatocytes. Isolated primary rat hepatocytes were washed three times and suspended in DMEM containing 10% FBS, 100 µg/mL streptomycin, 100 U/ml penicillin, and 10 µg/mL insulin at pH 7.65.
Freshly isolated rat hepatocytes at a density of 1.0 × 10^6 cells/well were placed in plates pre-coated with collagen and incubated for 18–24 h in a humidified incubator at 37°C and 5% CO2. […] Control incubations were performed in the absence of hepatocytes to test the substrate stability. Three replicate samples (1 mL each) were collected after 1, 2, 4, and 6 h of incubation. Then, 800 µL of methanol was immediately added, and the samples were transferred to a freezer (−20°C) to terminate metabolism. Hepatocytes were quickly washed three times with ice-cold HBSS and then lysed by the addition of 300 µL of purified water.
An AB Sciex 4000 Mass Spectrometer (AB Sciex, Framingham, MA, USA) and Shimadzu LC 20 series (Shimadzu, Kyoto, Japan) were used for HPLC-MS/MS. […] The Phenomenex Synergi Hydro-RP column (30 mm × 2 mm, 4 µm, Phenomenex Inc., Torrance, CA, USA) was used for chromatographic separation. The mobile phase consisted of 0.1% (vol/vol) formic acid in water (A) and 0.1% (vol/vol) formic acid in acetonitrile (B). The gradient conditions were as follows: 0–1.4 min, 15%–80% B; 1.4–1.8 min, 80% B; 1.8–1.81 min, return to 15% B; 1.81–2.1 min, equilibrium. The flow rate was 450 µL/min. Data acquisition and analysis were performed using the Analyst software (version 1.4.1, AB Sciex).
(§1) Atotal is the total cumulative amount excreted in urine over 24 h. D is the administered dose. The scale factor is 4,680 (10^6 cells/kg). All data are expressed as mean ± standard deviation (SD). Statistical analysis was performed using Student’s two-tailed unpaired t-test or nonparametric Mann-Whitney U test with SPSS Statistics 19.0 (SPSS Inc., Chicago, IL, USA). Statistical significance was set at P < 0.05.

[1] = Serum biochemical parameters of CCl4-induced rats; type: in vivo, rat
megakaryocytic cells = settings: cited from earlier work
[2] = cited from earlier work
[3] = Tissue distribution after i.g. or i.v. linezolid in control, CCl4-induced and 5/6 Nx rats; type: in vivo, rat; settings: after i.g. or i.v. linezolid; LLOQ 0.25 mg/L
From the text: These two groups were further divided into the following three subgroups (n = 4): control rats, CCl4-induced rats, and 5/6 Nx rats. […] The rats were euthanized immediately after blood sampling. The brain, heart, lungs, liver, kidneys, and small intestine were collected. The collected tissues were washed and homogenized in normal saline (three-fold volume of each sample weight) using a multi-sample tissue grinder (Tissuelyser-48L; Shanghai Jingxin Industrial Development Co. Ltd., Shanghai, China). After centrifugation of the homogenate samples at 12,000 × g for 10 min at 4°C, the supernatants were stored at −80°C.
The flow rate was 1.0 mL/min.
Then, 5 µL of the supernatant was analyzed.

in vivo = settings: rat, in vivo; for half-life: t1/2
From the text: The control group rats were intraperitoneally injected with equal volumes of soybean oil. […] The upper and lower poles of the left kidney were removed under urethane anesthesia (1 g/kg; administered by i.p. injection). One week later, the right kidney was completely excised. Rats in the control group underwent a sham operation ([35]). Serum creatinine (CREA), blood urea nitrogen (BUN), aspartate aminotransferase (AST), alanine aminotransferase (ALT), alkaline phosphatase (ALP), lactate dehydrogenase (LDH), and total bilirubin (TBIL) levels were measured using commercial kits (Shanghai Enzyme-linked Biotechnology Co., Ltd., Shanghai, China) according to the protocols described by the manufacturer before pharmacokinetic experiments.
The rats were first divided into two groups: i.v. or i.g. administration groups. These two groups were further divided into the following four subgroups (n = 5): soybean oil-treated control rats, CCl4-induced rats, sham-operated control rats, and 5/6 Nx rats. […] Blood samples (200 µL) were collected from the retro-orbital venous plexus into heparinized tubes at 0 (pre-dose), 0.25, 0.5, 0.75, 1, 2, 3, 4, 6, 8, 12, and 24 h after i.g. administration, and at 0 (pre-dose), 0.083, 0.25, 0.5, 0.75, 1, 2, 3, 4, 6, 8, 12, and 24 h after i.v. administration. Plasma samples were separated by centrifugation at 6,000 × g for 5 min at 4°C and stored at −80°C until further analysis using HPLC.
Chromatographic separation was performed using the SinoPak BEH T-C18 column (4.6 mm × 150 mm, 5 µm, Hi-tech Zone, China) at 35°C. A photodiode array detector was set at a wavelength of 254 nm. The mobile phase consisted of 0.1% (vol/vol) formic acid in water (A) and acetonitrile (B). The gradient conditions were as follows: 0–4.0 min, 14%–86% B; 4.0–5.0 min, […]; 5.0–5.7 min, return to 14% B; 5.7–8.0 min, equilibrium. The flow rate was 1.0 mL/min.
Plasma and tissue homogenate samples (100 µL) were mixed with 10 µL of IS (50.0 mg/L) and 200 µL of acetonitrile, followed by vortex-mixing for 3 min. The mixture was centrifuged at 15,000 × g for 15 min at 4°C. Then, 5 µL of the supernatant was analyzed. The urine samples were diluted and directly injected for measurement.
The area under the plasma concentration-time curve from 0 to infinity (AUC0-∞), time to maximum concentration (tmax), Cmax, t1/2, CL, and Vd were calculated by non-compartmental model analysis using the Phoenix 8.1.0 WinNonlin software (Pharsight Corp, Princeton, NJ, USA). The renal clearance (CLr), in vitro hepatic clearance (CLint, in vitro), and bioavailability (F) were calculated using the following equations:
F (%) = Div×AUC0−∞, ig/Dig×AUC0−∞, iv
as §1

## O=c1ccc2ccc(O)cc2o1 [7-hydroxycoumarin]
Primary rat hepatocytes
  substrate stability in control incubation: No reductions
  remaining percentage: < 5%

## ClC(Cl)(Cl)Cl [CCl4, Carbon tetrachloride]
[1]
  serum ALT relative to soybean oil-treated control rats: 6.92 fold
  serum AST relative to soybean oil-treated control rats: 10.7 fold
  serum LDH relative to soybean oil-treated control rats: 1.86 fold
  serum TBIL relative to soybean oil-treated control rats: 8.40 fold
[1]; 2.5 mL/kg i.p., 24 h, serum
  ALP: 257.1 ± 94.3 U/L
  ALT: 418.8 ± 129.4 U/L
  AST: 2399.5 ± 203.2 U/L
  CREA: 17.1 ± 7.3 µmol/L
  LDH: 2477.6 ± 220.8 U/L
  TBTL: 4.2 ± 2.0 µmol/L

## CC(=O)NC[C@H]1CN(c2ccc(N(CCO)CC(=O)O)c(F)c2)C(=O)O1 [PNU-142586]
Primary rat hepatocytes; 5/6 Nx rat hepatocytes
  decrease of formation compared to normal rat hepatocytes: 28.9%
Primary rat hepatocytes; hepatocytes from CCl4-induced rats
  decrease of formation compared to normal rat hepatocytes: 95.6%
Megakaryocytic cells
  cytotoxic effects on platelet precursor cell lines: cytotoxic effects
[2]
  accumulation in patients with renal failure: accumulated
[2]; humans
  share of dosed linezolid in the urine: more than 30%
[3]
  detection in brain, heart, lung, liver, kidney, or small intestine tissues: No PNU-142586 was detected
In vivo; Sprague-Dawley
  decrease of CLr in comparison to sham-operated control rats: 33.3%
  share of the total plasma concentrations: 5.6–8.5%
In vivo; Sprague-Dawley, iv
  AUC0-∞ relative to sham-operated control rats: 2.82 fold
  decrease of AUC0-∞ compared to soybean oil-treated control rats: 13.6%
  decrease of CLr in comparison to sham-operated control rats: 33.3%
  t1/2 relative to control rats: 1.41 fold
  t1/2 relative to sham-operated control rats: 1.53 fold
In vivo; Sprague-Dawley, iv, 25 mg/kg
  Cmax: 1690 ± 230 ng/mL
  half-life: 127 ± 25.2 min
In vivo; Sprague-Dawley, po
  AUC0-∞ relative to sham-operated control rats: 1.88 fold
  decrease of AUC0-∞ compared to soybean oil-treated control rats: 10.4%
  t1/2 relative to control rats: 1.32 fold
  t1/2 relative to sham-operated control rats: 1.15 fold
In vivo; Sprague-Dawley, po, 63 mg/kg
  Cmax: 1860 ± 210 ng/mL
  half-life: 259 ± 31.2 min
In vivo; Sprague-Dawley, po, 63 mg/kg, tmax
  Tmax: 2.8 ± 0.45 h
In vivo
  cumulative urinary excretion rate: 3.5%

## C[C@]12CC[C@H]3[C@@H](CCC4=CC(=O)CC[C@@]43C)[C@@H]1CC[C@@H]2O [testosterone]
Primary rat hepatocytes
  substrate stability in control incubation: No reductions
  remaining percentage: less than 2%
